Assay [1] has as its target T1, human Nox2 (Homo sapiens, UniProt P04839).
T1 construct: host or cells: T-REx-CHO (hNOX2 T-REx-CHO), tetracycline-induced; membrane fraction
T1 sequence (P04839 2-570 limits assumed): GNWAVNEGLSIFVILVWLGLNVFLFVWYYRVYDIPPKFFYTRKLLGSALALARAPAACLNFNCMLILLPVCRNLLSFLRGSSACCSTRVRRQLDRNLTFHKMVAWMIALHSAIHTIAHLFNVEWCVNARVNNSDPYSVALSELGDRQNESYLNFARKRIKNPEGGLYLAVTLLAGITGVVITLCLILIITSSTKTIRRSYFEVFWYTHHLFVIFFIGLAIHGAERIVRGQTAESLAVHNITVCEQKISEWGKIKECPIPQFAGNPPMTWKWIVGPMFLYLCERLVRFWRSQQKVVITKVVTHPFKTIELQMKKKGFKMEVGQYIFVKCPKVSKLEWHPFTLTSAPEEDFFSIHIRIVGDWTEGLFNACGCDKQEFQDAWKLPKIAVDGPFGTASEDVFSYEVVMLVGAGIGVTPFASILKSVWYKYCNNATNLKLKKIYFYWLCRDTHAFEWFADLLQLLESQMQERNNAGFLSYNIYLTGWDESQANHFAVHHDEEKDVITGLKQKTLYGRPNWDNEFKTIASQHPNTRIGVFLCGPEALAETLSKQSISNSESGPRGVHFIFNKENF
T1 sequence (P13498 2-195 partner limits assumed): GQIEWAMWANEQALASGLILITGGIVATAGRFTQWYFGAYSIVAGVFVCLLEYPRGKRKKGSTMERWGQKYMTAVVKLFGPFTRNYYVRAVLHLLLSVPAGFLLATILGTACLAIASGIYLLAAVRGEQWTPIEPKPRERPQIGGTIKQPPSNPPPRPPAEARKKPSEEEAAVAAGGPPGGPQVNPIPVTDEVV
In words: ROS production by membranes expressing human Nox2, cell-free Amplex Red assay. The conditions noted are these: cell-free membranes, Amplex Red; Cheng-Prusoff; average of at least three experiments in triplicate; read-out: Ki hNox2. It is filed as biochemical. The text has this: (§1) The Nox4 activity of Nox4 inhibitors according to the invention may be tested for their activity in the inhibition or reduction of formation of reactive oxygen species (ROS) from oxygen in cell free assays. In order to fully characterise Nox4 inhibitors, Nox subunit-specific cell-free, membrane-based systems have been developed and specific recombinant proteins have been added to membranes heterologously over-expressing their specific iso form. Nox enzymes produce superoxide (O2.−) as primary product, however due to the high instability and reactivity of this molecule which dismutates naturally into hydrogen peroxide (H2O2), therefore, read-out techniques involving probes that do measure H2O2 were used (e.g. using Amplex Red as a probe in order to facilitate consistent and accurate measurements). The activity of the compounds is tested in the following cell free assay using the techniques described here below:
Human Nox1 (NM_007052.4), human NOX2 (NM_000397), and human NOX5 (NM_0245052244) cDNAs were cloned into the pcDNA5/TO (Invitrogen). Human p22 (NM_000101.2) was cloned into pcDNA3.1/Zeo (+) (Invitrogen), and human NOXA1 (AY255769.1) and human NOXO1 (AB097667) were cloned into the bi-cistronic pVITRO1-neo-mcs plasmid (Invivogen).
Cells were transfected by using the FuGENE 6 method. Cells stably expressing functional human Nox1 (hNOX1 T-REx™-CHO) were obtained by co-transfecting T-REx™-CHO cells with human Nox1, human p22, human NOXA1 and human NOXO1. Cells stably expressing functional human Nox2 (hNOX2 T-REx™-CHO) were obtained by co-transfecting T-REx™-CHO cells with human nox2, human p22 and human cofactors. Cells stably expressing functional human Nox5 (hNOX5 T-REx™-CHO) were obtained by transfecting T-REx™-CHO cells with human Nox5. Co-transfected cells were selected with the appropriate antibiotics for 10 days. For the selection, hygromycin and G418 were used at 2 mg/ml and zeocin at 0.1 mg/ml. For the establishment of each stably transfected cell line, a pool of antibiotic-resistant cells was generated. Cells were cloned by limiting dilution. Several clones were established and investigated for ROS production upon tetracycline-induced hNox expression using a cellular AR assay. The expression of NOXes was done with tetracycline (1 μg/ml) during 24 h prior to the assay.
(§2) Human Nox1, Nox2, Nox4, and Nox5 expression were induced with Tetracycline (1 μg/ml) during 24 h prior to the membrane preparation Membranes from transfected cells overexpressing Nox1, Nox2, Nox4 or Nox5 were prepared as previously described in Palicz et al., 2001, J. Biol. Chem., 76, 3090-3097. After resuspension in sonication buffer (11% sucrose, 120 mM NaCl, 1 mM EGTA in PBS, pH 7.4 for Nox4- or NOX5-expressing cells) or in relax buffer (10 mM Pipes, 3 mM NaCl, 3.5 mM MgCl2, 0.1M KCl, pH 7.4), cells were broken by sonication and centrifuged (200 g, 10 min). The supernatant was layered onto a 17/40% (w/v) discontinuous sucrose gradient and centrifuged (150,000×g for 60 min). Membrane fractions were collected from the 17/40% interface and were stored at −80° C. Protein concentration was determined with the Bradford reagent.
(§3) Reactive Oxygen Species (ROS) production by membranes expressing either human Nox1, or human Nox2 or human Nox4 or human Nox5 or by xanthine/xanthine oxidase were measured using the Amplex Red (AR) method following a slightly modified version of the manufacturer's instruction manual (Invitrogen). Briefly, membranes or xanthine were incubated in PBS with Amplex Red, Horse Radish Peroxidase (HRP) and appropriated co-factors. ROS production was induced by addition of NADPH to NOX-expressing membrane or by addition of xanthine to xanthine oxidase. Non-specific signal was measured in the absence of membranes or in the absence of xanthine.
Antagonist activity of compounds was measured in the presence of increasing concentrations ranging from 1 nM to 100 μM. […]

The target of assay [2] is T2, human Nox4 (Homo sapiens, UniProt Q9NPH5).
T2 construct: expressed in transfected cells; host or cells: T-REx-293 (hNOX4 T-REx-293), tetracycline-induced; membrane fraction
T2 sequence (Q9NPH5 1-578): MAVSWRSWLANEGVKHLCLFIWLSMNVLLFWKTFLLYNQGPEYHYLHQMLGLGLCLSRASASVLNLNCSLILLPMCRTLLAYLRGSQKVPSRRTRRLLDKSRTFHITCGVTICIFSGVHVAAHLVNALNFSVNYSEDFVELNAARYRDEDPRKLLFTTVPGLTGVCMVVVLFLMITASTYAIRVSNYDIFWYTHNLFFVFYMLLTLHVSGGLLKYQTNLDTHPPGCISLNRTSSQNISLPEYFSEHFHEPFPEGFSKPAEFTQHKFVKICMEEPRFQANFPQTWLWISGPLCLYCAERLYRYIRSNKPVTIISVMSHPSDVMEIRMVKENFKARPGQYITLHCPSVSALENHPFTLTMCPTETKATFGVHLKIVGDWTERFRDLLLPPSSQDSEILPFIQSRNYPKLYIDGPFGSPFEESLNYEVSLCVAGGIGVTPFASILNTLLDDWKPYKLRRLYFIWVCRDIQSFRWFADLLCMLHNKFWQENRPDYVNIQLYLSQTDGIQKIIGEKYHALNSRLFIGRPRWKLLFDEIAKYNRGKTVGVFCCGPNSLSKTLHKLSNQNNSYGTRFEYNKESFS
T2 sequence (P13498 2-195 partner limits assumed): T1 sequence (P13498 2-195 partner limits assumed)
In words: ROS production by membranes expressing human Nox4, cell-free Amplex Red assay. It is filed as biochemical. The conditions noted are these: cell-free membranes, Amplex Red; Cheng-Prusoff; average of at least three experiments in triplicate; read-out: Ki hNox4.
Text: as §1
Transfected T-REx™-CHO cells (R718-07) purchased from Invitrogen and T-REx™-293 cell line expressing hNOX4 (hNOX4 T-REx™-293) (Serrander et al., 2007, Biochem. J., 406, 105-114) were cultured in […]. Both media were supplemented with 10% FBS, 2 mM glutamine, penicillin (100 U/ml) and streptomycin (100 μg/ml). Selection pressure was maintained by continuous inclusion of blasticidin (5 μg/ml), and/or G418 (0.25 mg/ml), and/or Hygromycin (0.25 mg/ml) and/or zeocin (0.025 mg/ml).
as §2, §3
Antagonist activity of compounds was measured in the presence of increasing concentrations ranging from 1 nM to 100 μM. After an incubation of 20 min in a plate shaker and incubator (Titramax 1000, VWR) at 37° C. with weak agitation (300 rpm), ROS levels were measured for 10 min in a BMG Fluostar microplate reader with excitation and emission wavelengths of 544 nm and 590 nm respectively.
Data were analysed using Prism (GraphPad Software Inc., San Diego, Calif.). Ki values were calculated using the Cheng-Prusoff equation and represent the average of at least three individual experiments performed in triplicate (Table 1). Nox4 inhibition was compared to that measured for Simvastatin (Enzo Life Sciences, CAS Number 79902-63-9) using the method described in Example 1. Reactive Oxygen Species (ROS) production by membranes expressing human Nox4 was measured using the Amplex Red (AR).

In the case of `COc1ccc(-c2c3c(=O)n(-c4ccccc4Cl)[nH]c3cc(=O)n2Cc2ccn(C)n2)c(F)c1` [(4), 2-(2-chlorophenyl)-4-(2-fluoro-4-methoxyphenyl)-5-[(1-methyl-1H-pyrazol-3-yl)methyl]-1H-pyrazolo[4,3-c]pyridine-3,6(2H,5H)-dione], the inhibition constant (Ki) came to 813 nM in assay [1] and 61 nM in assay [2].
For `COc1ccc(F)c(-c2c3c(=O)n(-c4ccccc4OC)[nH]c3cc(=O)n2Cc2cccnc2)c1` [(5), 4-(2-fluoro-5-methoxyphenyl)-2-(2-methoxyphenyl)-5-(pyridin-3-ylmethyl)-1H-pyrazolo[4,3-c]pyridine-3,6(2H,5H)-dione] the same measures were 730 nM and 63 nM.
As to `COc1cc(Cn2c(C)c3c(=O)n(-c4ccccc4Cl)[nH]c3cc2=O)ccn1` [(6), 2-(2-chlorophenyl)-5-[(2-methoxypyridin-4-yl)methyl]-4-methyl-1H-pyrazolo[4,3-c]pyridine-3,6(2H,5H)-dione], the inhibition constant Ki worked out at 715 nM in assay [1] and 69 nM in assay [2].
Turning to `COc1ccccc1-n1[nH]c2cc(=O)n(Cc3cccnc3)c(C)c2c1=O` [(7), 2-(2-methoxyphenyl)-4-methyl-5-(pyridin-3-ylmethyl)-1H-pyrazolo[4,3-c]pyridine-3,6(2H,5H)-dione], the inhibition constant (Ki) in assay [1] worked out at 1170 nM; in assay [2], 72 nM.
Turning to `COc1ccccc1-n1[nH]c2cc(=O)n(Cc3cccnc3)c(-c3ccc(Cl)cc3F)c2c1=O` [(8), 4-(4-chloro-2-fluorophenyl)-2-(2-methoxyphenyl)-5-(pyridin-3-ylmethyl)-1H-pyrazolo[4,3-c]pyridine-3,6(2H,5H)-dione], the inhibition constant Ki in assay [1] turned out to be 750 nM; in assay [2] it was 73 nM.
As for `O=c1c2c(-c3cc(Cl)ccc3F)n(Cc3cccnc3)c(=O)cc2[nH]n1-c1ccccc1Cl` [(9), 4-(5-chloro-2-fluorophenyl)-2-(2-chlorophenyl)-5-(pyridin-3-ylmethyl)-1H-pyrazolo[4,3-c]pyridine-3,6(2H,5H)-dione], the Ki was 650 nM in assay [1] and 74 nM in assay [2].
In the case of `COc1ccc(Cn2c(C)c3c(=O)n(-c4ccccc4Cl)[nH]c3cc2=O)cn1` [(10), 2-(2-chlorophenyl)-5-[(6-methoxypyridin-3-yl)methyl]-4-methyl-1H-pyrazolo[4,3-c]pyridine-3,6(2H,5H)-dione], the Ki came out at 700 nM in assay [1] and 74 nM in assay [2].
In the case of `O=c1c2c(-c3ccc(Cl)cc3F)n(Cc3cccnc3)c(=O)cc2[nH]n1-c1ccccc1Cl` [(11), 4-(4-chloro-2-fluorophenyl)-2-(2-chlorophenyl)-5-(pyridin-3-ylmethyl)-1H-pyrazolo[4,3-c]pyridine-3,6(2H,5H)-dione], the Ki in assay [1] is 563 nM; in assay [2], 75 nM.
Turning to `COc1ccc(F)c(-c2c3c(=O)n(-c4ccccc4OC)[nH]c3cc(=O)n2Cc2ccn(C)n2)c1` [(13), 4-(2-fluoro-5-methoxyphenyl)-2-(2-methoxyphenyl)-5-[(1-methyl-1H-pyrazol-3-yl)methyl]-1H-pyrazolo[4,3-c]pyridine-3,6(2H,5H)-dione], the inhibition constant Ki came to 985 nM in assay [1] and 80 nM in assay [2].
As for `COc1ccccc1-n1[nH]c2cc(=O)n(Cc3cccnc3)c(-c3cc(Cl)ccc3F)c2c1=O` [(14), 4-(5-chloro-2-fluorophenyl)-2-(2-methoxyphenyl)-5-(pyridin-3-ylmethyl)-1H-pyrazolo[4,3-c]pyridine-3,6(2H,5H)-dione], the inhibitory constant (Ki) came to 695 nM in assay [1] and 81 nM in assay [2].
On to `Cc1c2c(=O)n(-c3ccccc3Cl)[nH]c2cc(=O)n1Cc1cccnc1` [(15), 2-(2-chlorophenyl)-4-methyl-5-(pyridin-3-ylmethyl)-1H-pyrazolo[4,3-c]pyridine-3,6(2H,5H)-dione], for which the Ki was found to be 907 nM in assay [1] and 83 nM in assay [2].
For `O=c1c2c(-c3ccc(Cl)cc3)n(Cc3cnccn3)c(=O)cc2[nH]n1-c1ccccc1Cl` [(16), 2-(2-chlorophenyl)-4-(4-chlorophenyl)-5-(pyrazin-2-ylmethyl)-1H-pyrazolo[4,3-c]pyridine-3,6(2H,5H)-dione] the same measures were 720 nM and 85 nM.

Usually Ki stands for a measure of affinity in units of concentration, obtained from inhibition or displacement.
